# Data from PubChem BioAssay AID2060896 (Molecular Pharmacology Branch, DTP, NCI, 2025).
# System: 941728-121-R-J1-PDC complex spheroid viability
# Assay: Anticancer human tumor 941728-121-R-J1-PDC patient-derived lung adenocarcinoma cell line growth inhibition [RAS]
# Conditions: for IC50: curve of first compound; for viability, T/C: stronger effect = lower value
# Procedure, shortened: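 Tumour cells grown as complex spheroids with HUVEC endothelial cells and mesenchymal stem cells, treated with RAS pathway inhibitor combinations. Each agent spans half-log steps from near clinical Cmax, or 10 microM where Cmax is unknown.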
# [1] = second compound 0.00316 µM, first compound 0.0316 µM
# [2] = second compound 0.00316 µM, first compound 0.1 µM
# [3] = second compound 0.00316 µM, first compound 0.316 µM
# [4] = second compound 0.00316 µM, first compound 1 µM
# [5] = second compound 0.00316 µM, first compound 3.16 µM
# [6] = second compound 0.00316 µM, first compound 10 µM
# [7] = second compound 0.01 µM, first compound 0.0316 µM
# [8] = second compound 0.01 µM, first compound 0.1 µM
# [9] = second compound 0.01 µM, first compound 0.316 µM
# [10] = second compound 0.01 µM, first compound 1 µM
# [11] = second compound 0.01 µM, first compound 3.16 µM
# [12] = second compound 0.01 µM, first compound 10 µM
# [13] = second compound 0.0316 µM, first compound 0.0316 µM
# [14] = second compound 0.0316 µM, first compound 0.1 µM
# [15] = second compound 0.0316 µM, first compound 0.316 µM
# [16] = second compound 0.0316 µM, first compound 1 µM
# [17] = second compound 0.0316 µM, first compound 3.16 µM
# [18] = second compound 0.0316 µM, first compound 10 µM
# [19] = second compound 0.1 µM, first compound 0.0316 µM
# [20] = second compound 0.1 µM, first compound 0.1 µM
# [21] = second compound 0.1 µM, first compound 0.316 µM
# [22] = second compound 0.1 µM, first compound 1 µM
# [23] = second compound 0.1 µM, first compound 3.16 µM
# [24] = second compound 0.1 µM, first compound 10 µM
# [25] = second compound 0.316 µM, first compound 0.0316 µM
# [26] = second compound 0.316 µM, first compound 0.1 µM
# [27] = second compound 0.316 µM, first compound 0.316 µM
# [28] = second compound 0.316 µM, first compound 1 µM
# [29] = second compound 0.316 µM, first compound 3.16 µM
# [30] = second compound 0.316 µM, first compound 10 µM
# [31] = second compound 1 µM, first compound 0.0316 µM
# [32] = second compound 1 µM, first compound 0.1 µM
# [33] = second compound 1 µM, first compound 0.316 µM
# [34] = second compound 1 µM, first compound 1 µM
# [35] = second compound 1 µM, first compound 3.16 µM
# [36] = second compound 1 µM, first compound 10 µM
# 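Further: spheroids exposed to compounds for 7 days before readout.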
# 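Wherever viability, T/C is given: 100% = DMSO vehicle control viability.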
smiles,measurement,setting,value
CCC(CC)c1cc(NC2CCC(N)C2)n2nccc2n1 (stereo unspecified) + C=CC(=O)N1CCN(c2nc(OCC3CCCN3C)nc3c(F)c(-c4nc(N)cc(C)c4C(F)(F)F)c(Cl)cc23)C(C)C1,IC50,second compound 0.00316 µM,< 31.6 nM
same,IC50,second compound 0.01 µM,< 31.6 nM
same,IC50,second compound 0.0316 µM,< 31.6 nM
same,IC50,second compound 0.1 µM,< 31.6 nM
same,IC50,second compound 0.316 µM,< 31.6 nM
same,IC50,second compound 1 µM,< 31.6 nM
same,"viability, T/C",[1],19.6%
same,"viability, T/C",[2],18.1%
same,"viability, T/C",[3],20.3%
same,"viability, T/C",[4],27.2%
same,"viability, T/C",[5],13.7%
same,"viability, T/C",[6],29.1%
same,"viability, T/C",[7],20.1%
same,"viability, T/C",[8],19.9%
same,"viability, T/C",[9],21.8%
same,"viability, T/C",[10],28.4%
same,"viability, T/C",[11],13.3%
same,"viability, T/C",[12],25%
same,"viability, T/C",[13],20%
same,"viability, T/C",[14],24.5%
same,"viability, T/C",[15],23.5%
same,"viability, T/C",[16],27.3%
same,"viability, T/C",[17],13.7%
same,"viability, T/C",[18],25.9%
same,"viability, T/C",[19],19.7%
same,"viability, T/C",[20],18.3%
same,"viability, T/C",[21],23.4%
same,"viability, T/C",[22],27.3%
same,"viability, T/C",[23],16.6%
same,"viability, T/C",[24],25.9%
same,"viability, T/C",[25],19.1%
same,"viability, T/C",[26],21.6%
same,"viability, T/C",[27],21.5%
same,"viability, T/C",[28],26%
same,"viability, T/C",[29],14.9%
same,"viability, T/C",[30],26.1%
same,"viability, T/C",[31],20.6%
same,"viability, T/C",[32],21.2%
same,"viability, T/C",[33],22.6%
same,"viability, T/C",[34],30.2%
same,"viability, T/C",[35],16.8%
same,"viability, T/C",[36],32.5%
Cc1nc(N2CCC3(CC2)COC(C)C3N)c(CO)nc1Sc1ccnc(N)c1Cl (stereo unspecified) + C=CC(=O)N1CCN(c2nc(OCC3CCCN3C)nc3c(F)c(-c4nc(N)cc(C)c4C(F)(F)F)c(Cl)cc23)C(C)C1,IC50,second compound 0.00316 µM,< 31.6 nM
same,IC50,second compound 0.01 µM,< 31.6 nM
same,IC50,second compound 0.0316 µM,< 31.6 nM
same,IC50,second compound 0.1 µM,< 31.6 nM
same,IC50,second compound 0.316 µM,< 31.6 nM
same,IC50,second compound 1 µM,< 31.6 nM
same,"viability, T/C",[1],19%
same,"viability, T/C",[2],17.5%
same,"viability, T/C",[3],16.5%
same,"viability, T/C",[4],17.4%
same,"viability, T/C",[5],16.4%
same,"viability, T/C",[6],17.3%
same,"viability, T/C",[7],17.8%
same,"viability, T/C",[8],17.4%
same,"viability, T/C",[9],18.4%
same,"viability, T/C",[10],20.9%
same,"viability, T/C",[11],16.2%
same,"viability, T/C",[12],16.3%
same,"viability, T/C",[13],18.5%
same,"viability, T/C",[14],18.3%
same,"viability, T/C",[15],13.9%
same,"viability, T/C",[16],15.6%
same,"viability, T/C",[17],15.9%
same,"viability, T/C",[18],16.9%
same,"viability, T/C",[19],19%
same,"viability, T/C",[20],16.7%
same,"viability, T/C",[21],15.5%
same,"viability, T/C",[22],17.6%
same,"viability, T/C",[23],17.8%
same,"viability, T/C",[24],14.9%
same,"viability, T/C",[25],19.3%
same,"viability, T/C",[26],28.2%
same,"viability, T/C",[27],18.2%
same,"viability, T/C",[28],16.4%
same,"viability, T/C",[29],15.9%
same,"viability, T/C",[30],15.9%
same,"viability, T/C",[31],20.2%
same,"viability, T/C",[32],18.2%
same,"viability, T/C",[33],15.9%
same,"viability, T/C",[34],16.1%
same,"viability, T/C",[35],19.1%
same,"viability, T/C",[36],18.1%
NC1c2ccccc2OC12CCN(c1cnc3c(N4CCCc5ncccc54)n[nH]c3n1)CC2 (stereo unspecified) + C=CC(=O)N1CCN(c2nc(OCC3CCCN3C)nc3c(F)c(-c4nc(N)cc(C)c4C(F)(F)F)c(Cl)cc23)C(C)C1,IC50,second compound 0.00316 µM,< 31.6 nM
same,IC50,second compound 0.01 µM,< 31.6 nM
same,IC50,second compound 0.0316 µM,< 31.6 nM
same,IC50,second compound 0.1 µM,< 31.6 nM
same,IC50,second compound 0.316 µM,< 31.6 nM
same,IC50,second compound 1 µM,< 31.6 nM
same,"viability, T/C",[1],15.4%
same,"viability, T/C",[2],15.1%
same,"viability, T/C",[3],15.6%
same,"viability, T/C",[4],17%
same,"viability, T/C",[5],16.8%
same,"viability, T/C",[6],17.1%
same,"viability, T/C",[7],18.8%
same,"viability, T/C",[8],15.7%
same,"viability, T/C",[9],16.2%
same,"viability, T/C",[10],15.5%
same,"viability, T/C",[11],17.1%
same,"viability, T/C",[12],17.5%
same,"viability, T/C",[13],16.4%
same,"viability, T/C",[14],15.7%
same,"viability, T/C",[15],15.8%
same,"viability, T/C",[16],16.8%
same,"viability, T/C",[17],15.9%
same,"viability, T/C",[18],16.3%
same,"viability, T/C",[19],15%
same,"viability, T/C",[20],15.3%
same,"viability, T/C",[21],16%
same,"viability, T/C",[22],17.6%
same,"viability, T/C",[23],17%
same,"viability, T/C",[24],17%
same,"viability, T/C",[25],16.3%
same,"viability, T/C",[26],16.8%
same,"viability, T/C",[27],17%
same,"viability, T/C",[28],16.9%
same,"viability, T/C",[29],15.7%
same,"viability, T/C",[30],16%
same,"viability, T/C",[31],16.1%
same,"viability, T/C",[32],15.1%
same,"viability, T/C",[33],16%
same,"viability, T/C",[34],16.6%
same,"viability, T/C",[35],17.6%
same,"viability, T/C",[36],17.2%
